Measured values as given in patent US9809521B2, “Cannabidinoid derivatives” (priority 2011, dated 2017).

Tests used:
U251 cells [1] = assay: Boyden chamber invasion assay; type: cell-based, human
From the text: Boyden chamber U251 cell invasion studies with CBD and/or Δ^9-THC. In addition to uncontrolled cell growth, a hallmark phenotype of aggressive GBM tumor cells is their ability to migrate away for the primary tumor of origin and invade into neighboring CNS tissue.

caspase 3, 7, 9 and PARP = assay: Western analysis of caspases and PARP in U251 cells; type: cell-based, human; details: THC 1.7 μM, CBD 0.4 μM, three days
From the text: Caspases play a primary role in the regulation of programmed cell death.

U251 cells [2] = assay: Apoptosis (annexin staining, FACS); type: cell-based, human
Procedure: Apoptosis: Cells were grown in 6 well culture dishes and were treated with compounds of the disclosure every 24 hours for three days. […] The labeled cells were analyzed by flow cytometry. Cell Flow Cytometry in combination with PI and annexin staining was used to quantify the percentage of cells undergoing apoptosis in control and treatment groups. Percent control was calculated as annexin positive staining in treated cells/control cells×100. PI staining was used to distinguish necrotic cells from those undergoing apoptosis.
(§1) Albeit, the magnitude of these effects was reduced compared to those observed with the combination treatment.
The concentrations of the individual cannabinoids (THC and CBD) were next increased in order to attempt to match levels of apoptosis produced by the combination treatment. The purpose of these experiments was to determine whether the compounds alone recruited similar pathways as compared to the combination of THC and CBD. […] However, THC alone could not produce the level of apoptosis observed with the combination treatment (FIG. 23, panel A and B).

Id-1 [3] = assay: Immunohistochemical detection of Id-1 in lung metastatic foci; type: in vivo, mouse
Procedure: CBD down-regulates Id-1 expression and breast cancer cell proliferation in lung metastatic foci. […] Lung tissue from mice treated with vehicle or CBD (1 mg/kg) were evaluated for Id-1 expression and Ki67, a marker of cellular proliferation (FIG. 5, panel A).
Immunohistochemical detection of Id-1 and Ki67 was performed in lung tissues of vehicle and CBD treated mice. Nuclei were stained with hematoxylin. […] The intensity of the immunohistochemical (IHC) detection of Id-1 was then graded from 0 to 4.

[4] = tested on: SAS, HSC-2, ACCM and ACC2 cells; assay: Head and neck and salivary gland cancer cells: Id-1 expression, viability, invasiveness; type: cell-based
Procedure: Measuring the effect of CBD on the aggressiveness of head and neck as well as salivary gland cancer cells. Head and neck cancer cell lines (SAS and HSC-2 in the upper panels) and salivary gland cancer cell lines (ACCM and ACC2 in the lower panels) were treated with CBD.

U251 cells [5] = assay: Cell cycle analysis (PI staining, FACS); type: cell-based, human; details: THC 1.7 μM, CBD 0.4 μM
Procedure: Cell cycle analysis: U251 cells were grown in Petri dishes (100 mm×15 mm) and received drug treatments for 2 days. On the third day, the cells were harvested and centrifuged at 1200 rpm for 5 minutes. The pellet was washed 1× with PBS+1% BSA, and centrifuged again. The pellet was re-suspended in 0.5 ml of 2% paraformaldehyde (diluted with PBS) and left to fix overnight at room temperature. The next day the cells were pelleted and re-suspended in 0.5 ml 0.3% Triton in PBS and incubated for 5 minutes at room temperature. The cells were then washed 2 times with PBS+1% BSA. The cells were finally suspended in PBS (0.1% BSA) with 10 ug/ml Propidium Iodide and 100 μg/ml RNAse. The cells were incubated for 30 minutes at room temperature before being stored at 4° C. Cell cycle was measured using a FACS Calibur using Cell Quest Pro and Modfit software.
Apoptosis Studies using U251 cells with Δ^9-THC and/or CBD. […] Therefore, U251 cells were treated with THC and CBD alone or with the combination of the two, and cell cycle was analyzed using cell flow cytometery (FIG. 20). […] Additionally, there was an increase in the population of cells in the G2/M phase. These changes in G1, S and G2/M phase are hallmarks of cell cycle arrest.
as §1

SF126 cells = assay: MTT cell proliferation assay; details: read-out: IC50, SF126; seven day treatment; 95% confidence limits in brackets
Id-1 [6] = assay: Quantitative Western analysis of Id-1 expression in U251 cells; type: cell-based, human
Procedure: Quantitative Western analysis of Id-1 expression in U251 cells with or without CBD treatment. To examine whether CBD would downregulate Id-1 protein expression in a GBM based cell line, quantitative Western analysis was performed with U251 cells.

4T1 breast cancer cells = assay: Viability assay, combination with Paclitaxel; type: cell-based, mouse
Procedure: Viability Assays using drug combinations and statistical analysis: Multiple viability assays in a 96 well format were run for each compound and the average percent inhibition of cell viability was calculated and transformed to fraction affected (Fa) i.e., percent inhibitory effect. Additional CI values and a dose reduction index (DRI) were also calculated using Compusyn software. After determining the (IC50/Fa0.5) values of the drugs individually, components were then combined at the following concentration ranges: controls, 0.125×IC50, 0.25×IC50, 0.5×IC50 and a combination index was calculated where CI<1, =1, and >1 indicate synergism, additive effect, and antagonism, respectively.
Cell viability studies with 4T1 breast cancer cells using CBD in combination with Paclitaxel. […] The concentration response curves were first generated for Paclitaxel (PAC), CBD alone, and a combination of CBD and Paclitaxel (FIG. 11, panel A). The inhibitory values from the concentration response curves were then used to calculate combination index (CI) values at multiple combination ratios (FIG. 11, panel B). From which, the data was also used to calculate i) IC50 values, the slope of the curve (m) and a goodness of fit value (r).

[7] = Toxicity observation in the mouse models of metastasis; details: in vivo
CB2 receptors = CB2 receptors (Homo sapiens, UniProt P34972); assay: Selectivity screen for CB2 receptors; type: binding
Id-2 = assay: Western analysis of Id-2 expression in breast cancer cells; type: cell-based, human; details: 1.0 μM, three days
CB1 receptors = CB1 receptors (Homo sapiens, UniProt P21554); assay: Affinity for CB1 receptors; type: binding
Id-1 [8] = assay: Quantitative Western analysis of Id-1 expression in 4T1 cells; type: cell-based, mouse; details: 1.0 μM, two days
Procedure: To examine whether CBD or O-1663 CBD analog would inhibit Id-1 protein expression in cells proposed for the in-vivo metastic cancer model, quantitative Western analysis was performed with 4T1 cells. 4T1 cells were treated with 1.0 μM of cannabinoid for two days and then analyzed for Id-1 protein expression.

CB1 receptors, sequence (P21554 whole entry): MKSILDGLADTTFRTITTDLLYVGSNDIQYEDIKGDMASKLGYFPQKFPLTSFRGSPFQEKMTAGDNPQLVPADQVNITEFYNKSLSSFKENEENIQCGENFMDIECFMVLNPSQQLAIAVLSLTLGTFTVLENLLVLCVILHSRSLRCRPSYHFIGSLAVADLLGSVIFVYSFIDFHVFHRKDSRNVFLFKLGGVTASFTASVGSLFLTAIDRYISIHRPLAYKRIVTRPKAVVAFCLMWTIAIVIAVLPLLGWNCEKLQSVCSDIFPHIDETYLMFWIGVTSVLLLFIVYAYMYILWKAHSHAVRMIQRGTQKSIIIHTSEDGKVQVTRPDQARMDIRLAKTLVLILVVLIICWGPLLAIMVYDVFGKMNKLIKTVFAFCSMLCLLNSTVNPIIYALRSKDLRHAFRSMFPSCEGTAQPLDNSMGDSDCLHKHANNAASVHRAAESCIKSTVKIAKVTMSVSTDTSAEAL
CB2 receptors, sequence (P34972 whole entry): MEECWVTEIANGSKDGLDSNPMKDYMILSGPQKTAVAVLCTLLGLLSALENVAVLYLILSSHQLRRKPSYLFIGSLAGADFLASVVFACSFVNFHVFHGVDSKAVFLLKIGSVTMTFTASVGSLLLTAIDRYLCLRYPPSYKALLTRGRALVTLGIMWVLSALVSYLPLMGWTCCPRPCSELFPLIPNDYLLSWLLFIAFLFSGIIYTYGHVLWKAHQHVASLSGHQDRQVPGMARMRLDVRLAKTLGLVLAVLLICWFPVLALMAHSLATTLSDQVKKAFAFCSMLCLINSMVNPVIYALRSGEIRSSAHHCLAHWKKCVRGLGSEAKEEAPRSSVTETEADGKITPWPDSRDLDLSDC

Row | SMILES | invasiveness of U251 cells (U251 cells [1]) | caspase 3, 7, 9 and PARP (caspase 3, 7, 9 and PARP) | block of apoptosis by CB2 antagonist SR144528 (U251 cells [2]; 0.5 μM SR144528, combination 1.7/0.4 μM, 2.5 μM THC, 2.0 μM CBD) | block of apoptosis by α-tocopherol (U251 cells [2]; 20 μM α-tocopherol, combination 1.7/0.4 μM, 2.5 μM THC, 2.0 μM CBD) | apoptosis (annexin) (U251 cells [2]; THC 1.7 μM, CBD 0.4 μM, three days) | lung foci strongly positive for Id-1 (Id-1 [3]; 1 mg/kg) [%] | intensity of IHC detection of Id-1, grade 0 to 4, average (Id-1 [3]; mouse, in vivo) | ACCM tumor cell viability and invasiveness [4] | Id-1 gene expression in SAS, HSC-2, ACCM, ACC2 [4] | SAS tumor cell viability and invasiveness [4] | cell cycle phases (U251 cells [5]) | IC50 (SF126 cells) [µM] | Id-1 protein expression (Id-1 [6]) | interaction with Paclitaxel (combination index) (4T1 breast cancer cells) | overt toxicity (weight, appearance, general activity) [7] | selectivity CB2 receptors over CB1 receptors (CB2 receptors) | up-regulation of Id-2 expression (Id-2) | affinity for CB1 receptors (CB1 receptors) | Id-1 protein expression compared with CBD (Id-1 [8])
1 | C=C(C)[C@@H]1CCC(C)=C[C@H]1c1c(O)cc(CCCCC)cc1O [CBD, cannabidiol] | significantly reduce the invasiveness of U251 cells | no changes in caspase activity were observed | no reversal was observed with SR144528 | completely blocked by α-tocopherol | did not produce significant changes in apoptosis | 5.6 | around 1 | significant effect on ACCM tumor cell viability and invasiveness | downregulated in all cell lines | significant effect on SAS tumor cell viability and invasiveness | increases in the population of cells in G1 and G2/M phase and decreases in cells in S phase | 0.73 | concentration-dependent inhibition of Id-1 protein expression | acts synergistically with Paclitaxel |  |  |  |  | 
2 | CCCCC(C)(C)c1cc(O)c(C2CCC(C3CCCCC3)CC2)c(O)c1 (stereo not shown) [Compound O-1663] |  |  |  |  |  |  |  |  |  |  |  |  |  |  | No overt toxicity | selective for targeting CB2 receptors over CB1 receptors | more potent than CBD at up-regulating Id-2 expression | lower affinity for CB1 receptors in comparison to THC | downregulated Id-1 protein expression to a far greater extent than CBD
